Assays:
Conditions in all cases: 72 h
Caco-2 [1] = assay: cell viability relative to DMSO; higher = less toxic
Calu-3 [2] = assay: as above
HepG2 [3] = assay: as above
U2OS [4] = assay: as above
Vero E6 [5] = assay: as above
Caco-2 [6] = assay: relative viability EC50 (midpoint between 100% and the lowest measured viability); higher = less toxic
Calu-3 [7] = assay: as above
HepG2 [8] = assay: as above
U2OS [9] = assay: as above
Vero E6 [10] = assay: as above
Caco-2 [11] = assay: drug sensitivity score (DSS) for viability; higher = more toxic; extreme values may be limits of the assay
Calu-3 [12] = assay: as above
HepG2 [13] = assay: as above
U2OS [14] = assay: as above
Vero E6 [15] = assay: as above

| SMILES | cell viability (Caco-2 [1]; 1 nM) | cell viability (Caco-2 [1]; 10 nM) | cell viability (Caco-2 [1]; 100 nM) | cell viability (Caco-2 [1]; 1000 nM) | cell viability (Caco-2 [1]; 10000 nM) | cell viability (Calu-3 [2]; 1 nM) | cell viability (Calu-3 [2]; 10 nM) | cell viability (Calu-3 [2]; 100 nM) | cell viability (Calu-3 [2]; 1000 nM) | cell viability (Calu-3 [2]; 10000 nM) | cell viability (HepG2 [3]; 1 nM) | cell viability (HepG2 [3]; 10 nM) | cell viability (HepG2 [3]; 100 nM) | cell viability (HepG2 [3]; 1000 nM) | cell viability (HepG2 [3]; 10000 nM) | cell viability (U2OS [4]; 1 nM) | cell viability (U2OS [4]; 10 nM) | cell viability (U2OS [4]; 100 nM) | cell viability (U2OS [4]; 1000 nM) | cell viability (U2OS [4]; 10000 nM) | cell viability (Vero E6 [5]; 1 nM) | cell viability (Vero E6 [5]; 10 nM) | cell viability (Vero E6 [5]; 100 nM) | cell viability (Vero E6 [5]; 1000 nM) | cell viability (Vero E6 [5]; 10000 nM) | relative viability EC50 (Caco-2 [6]) | relative viability EC50 (Calu-3 [7]) | relative viability EC50 (HepG2 [8]) | relative viability EC50 (U2OS [9]) | relative viability EC50 (Vero E6 [10]) | drug sensitivity score (Caco-2 [11]) | drug sensitivity score (Calu-3 [12]) | drug sensitivity score (HepG2 [13]) | drug sensitivity score (U2OS [14]) | drug sensitivity score (Vero E6 [15]) |
| --- | --- | --- | --- | --- | --- | --- | --- | --- | --- | --- | --- | --- | --- | --- | --- | --- | --- | --- | --- | --- | --- | --- | --- | --- | --- | --- | --- | --- | --- | --- | --- | --- | --- | --- | --- |
| CCCn1c(=O)c(C)cn2nc(N)nc12 | 91.7% | 91.5% | 102% | 99.5% | 112% | 105% | 102% | 102% | 111% | 99% | 96.9% | 95% | 93.8% | 98.3% | 107% | 100% | 97.3% | 104% | 98.9% | 101% | 90.1% | 103% | 96% | 97.1% | 97.7% | > 10 µM | > 10 µM | > 10 µM | > 10 µM | > 10 µM | 0 | 0 | 0 | 0 | 0 |
| C[N+](C)(C)CCCCCNCC12CC3CC(CC(C3)C1)C2 [IEM1460] | 96.2% | 103% | 95% | 99.6% | 88.1% | 91.1% | 104% | 96.1% | 98.2% | 98.4% | 101% | 85.2% | 104% | 93.9% | 106% | 94.1% | 102% | 99% | 103% | 95.7% | 105% | 91% | 105% | 92.5% | 103% | > 10 µM | > 10 µM | > 10 µM | > 10 µM | > 10 µM | 0.1 | 0 | 0 | 0 | 0 |
| CC(=O)N[C@@H](Cc1ccc(O)cc1)C(=O)O [N-acetyl-tyrosine] | 92.7% | 92.8% | 91% | 95.6% | 102% | 105% | 107% | 108% | 106% | 94.6% | 93.9% | 88.5% | 93.8% | 97.7% | 98.2% | 95.3% | 101% | 96.6% | 101% | 107% | 98.6% | 93.4% | 94.3% | 95% | 101% | > 10 µM | > 10 µM | > 10 µM | > 10 µM | > 10 µM | 0 | 0 | 0 | 0 | 0 |
| C[N@+]1(CC2CC2)CC[C@]23c4c5ccc(O)c4O[C@H]2C(=O)CC[C@@]3(O)[C@H]1C5 [methylnaltrexone] | 101% | 95.6% | 99.8% | 94.2% | 90.8% | 104% | 95% | 107% | 97.1% | 103% | 93.2% | 97.7% | 91.9% | 96.8% | 92.3% | 104% | 95.2% | 98.4% | 97.5% | 99.6% | 97.3% | 105% | 96.9% | 97.2% | 94.5% | > 10 µM | > 10 µM | > 10 µM | > 10 µM | > 10 µM | 0 | 0 | 0 | 0 | 0 |
| FCc1ccc(OCCOc2ccc(Cl)cc2Cl)c(Cl)n1 | 92.7% | 92.8% | 107% | 90.5% | 77% | 101% | 101% | 101% | 97.9% | 92.4% | 94.8% | 97.1% | 98.9% | 104% | 86.3% | 100% | 96.4% | 102% | 94.4% | 92.7% | 95.2% | 105% | 96.6% | 103% | 103% | > 10 µM | > 10 µM | > 10 µM | > 10 µM | > 10 µM | 1.9 | 0 | 0.1 | 0 | 0 |
| O=C(CN1CCNCC1)NC1CCCCC1 [esaprazole] | 105% | 92.2% | 105% | 98.5% | 98.6% | 98.3% | 98% | 101% | 104% | 97.1% | 104% | 99.5% | 100% | 102% | 90.1% | 99% | 100% | 102% | 100% | 108% | 103% | 107% | 99.1% | 107% | 98.5% | > 10 µM | > 10 µM | > 10 µM | > 10 µM | > 10 µM | 0 | 0 | 0 | 0 | 0 |
| C[C@]12CC[C@@H]3c4ccc(OS(=O)(=O)O)cc4CC[C@H]3[C@@H]1CCC2=O [estropipate] | 102% | 96.7% | 112% | 109% | 93.4% | 99.1% | 99.1% | 99.3% | 111% | 103% | 111% | 110% | 103% | 103% | 97.4% | 93.4% | 95.6% | 95% | 98% | 108% | 99.5% | 95.2% | 102% | 84.8% | 101% | > 10 µM | > 10 µM | > 10 µM | > 10 µM | > 10 µM | 0 | 0 | 0 | 0 | 0 |

Source: the supplement of paper PMC13380429
